Measured values from patent US9451775B2, “Heterocyclic compounds as pesticides” (Bayer Intellectual Property GmbH, priority 2008, dated 2016).
Like-named read-outs stand apart in the source and are kept apart here.

How the values were obtained:
[1] = test system: green peach aphid (Myzus persicae); test: Myzus test (spray treatment); type: in vivo; conditions: foliar, read-out: activity (effect in %, aphids killed)
Experimental: Myzus Test (Spray Treatment)
• Solvents: 78.0 parts by weight of acetone • 1.5 parts by weight of dimethylformamide • Emulsifier: 0.5 part by weight of alkylaryl polyglycol ether
To produce a suitable preparation of active compound, 1 part by weight of active compound is mixed with the stated amounts of solvents and emulsifier, and the concentrate is diluted with emulsifier-containing water to the desired concentration.
Discs of leaves of Chinese cabbage (Brassica pekinensis) which are heavily infested by all stages of the green peach aphid (Myzus persicae) are sprayed with an active compound preparation of the desired concentration.
After the desired period of time, the effect in % is determined. 100% means that all aphids have been killed; 0% means that none of the aphids have been killed.

[2] = logP determination by HPLC (formic acid method); type: physicochemical; conditions: for chromatographic logP: read-out: logP (HCOOH)
Experimental: 1) Description of the method for determining the logP values (formic acid method)
The logP values given in the table were determined in accordance with EEC Directive 79/831 Annex V.A8 by HPLC (High Performance Liquid Chromatography) on a reversed-phase column (C18). Temperature: 55° C.
Mobile phases for the determination in the acidic range (pH 3.4):
Mobile phase A: Acetonitrile+1 ml of formic acid/litre. Mobile phase B: water+0.9 ml of formic acid/litre.
Gradient: from 10% mobile phase A/90% mobile phase B to 95% mobile phase A/5% mobile phase B in 4.25 min.
Calibration was carried out using unbranched alkan-2-ones (having 3 to 16 carbon atoms) with known logP values (determination of the logP values by the retention times using linear interpolation between two successive alkanones). The lambda max values were determined in the maxima of the chromatographic signals using the UV spectra from 200 nm to 400 nm.

[3] = application rate of 500 g/ha, sprayed Chinese cabbage leaf discs
[4] = reversed-phase HPLC column (C18), pH 3.4, HPLC on reversed-phase column (C18), acidic range (pH 3.4), 55° C.
[5] = reversed-phase HPLC column (C18), pH 3.4, values printed in the text of the preparation examples, formic acid method

Row | SMILES | pest or weed control at 500 g/ha [1, 3] [%] | chromatographic logP [2, 4] | further results
1 | Cc1nc(-c2sc(-c3cccnc3)nc2C)cs1 [compound 30] | ≥ 80 | 2 | –
2 | Cc1nc(-c2cccnc2)sc1-c1ccn(C(=O)NCC(F)(F)F)n1 [compound 128] | ≥ 80 | 2.38 | –
3 | Cc1nc(-c2cccnc2)sc1-c1cccc(-n2cccn2)n1 [compound 97] | ≥ 80 | 2.93 | –
4 | Cn1nc(-c2cccnc2)cc1-c1ccnc(-c2ncccn2)n1 [Preparation Example 12] | – | 0.65 | pest or weed control at 500 g/ha ([1]; in Brassica rapa): ≥ 80%; chromatographic logP [2, 5]: 0.65
5 | Cc1nc(-c2cccnc2)sc1-c1ccnc(-c2ncccc2Cl)n1 [compound 41] | ≥ 80 | 2.03 | –
6 | Cc1nc(-c2cccnc2)sc1-c1ccc(C(F)(F)F)cn1 [compound 99] | ≥ 80 | 3.14 | –
7 | COCC(C)NC(=O)n1ccc(-c2sc(-c3cccnc3)nc2C)n1 (stereo not drawn) [compound 113] | ≥ 80 | 2.23 | –
8 | Cn1nc(-c2cccnc2)cc1-c1ccnc(-c2ccccn2)n1 [compound 171] | ≥ 80 | 0.87 | –
9 | Cc1nc(-c2cccnc2)sc1-c1ccn(C(=S)NC(C)c2ccccc2)n1 (stereo not drawn) [compound 136] | ≥ 80 | 4.41 | –
10 | CCCOCC(C)NC(=O)n1ccc(-c2sc(-c3cccnc3)nc2C)n1 (stereo not drawn) [compound 114] | ≥ 80 | 3.27 | –
11 | Cc1nc(-c2cccnc2)sc1-c1ccn(C(=O)NCC2CC2)n1 [compound 127] | ≥ 80 | 2.57 | –
12 | COC(C)(C)CNC(=O)n1ccc(-c2sc(-c3cccnc3)nc2C)n1 [compound 133] | ≥ 80 | 2.53 | –
13 | Cc1nc(-c2cccnc2)sc1-c1ccn(C(=S)NCC(C)C)n1 [compound 143] | ≥ 80 | 4.28 | –
14 | CCOCCNC(=O)n1ccc(-c2sc(-c3cccnc3)nc2C)n1 [compound 115] | ≥ 80 | 2.2 | –
15 | CCCc1cccc(-c2nccc(-c3sc(-c4cccnc4)nc3C)n2)n1 [compound 58] | ≥ 80 | 2.25 | –
16 | Fc1cncc(-c2ncc(-c3cccc(-c4ncccn4)n3)s2)c1 [compound 153] | ≥ 80 | 2.11 | –
17 | Cc1nc(-c2cccnc2)sc1-c1ccn(-c2ccccn2)n1 [compound 24] | ≥ 80 | 2.94 | –
18 | Cc1nc(-c2cccnc2)sc1-c1ccn(-c2nnc(C(C)C)s2)n1 [compound 76] | ≥ 80 | 3.11 | –
19 | CCc1cccc(-c2nccc(-c3sc(-c4cccnc4)nc3C)n2)n1 [compound 57] | ≥ 80 | 1.88 | –
20 | Cc1nc(-c2cccnc2)sc1-c1ccn(C(=S)NCC(F)(F)F)n1 [compound 141] | ≥ 80 | 3.42 | –
21 | Cc1nc(-c2cccnc2)sc1-c1nc(-c2nnc(C(F)(F)F)n2C)no1 [compound 91] | ≥ 80 | 2.41 | –
22 | Cc1nc(-c2cccnc2)sc1-c1ccn(-c2nc(Cl)cs2)n1 [compound 87] | ≥ 80 | 3.47 | –
23 | Cc1nc(-c2cccnc2)sc1-c1ccn(-c2ncccc2[N+](=O)[O-])n1 [compound 77] | ≥ 80 | 2.5 | –
24 | Cc1nc(-c2cccnc2)sc1-c1ccnc(C(F)(F)F)n1 [compound 109] | ≥ 80 | 2.72 | –
25 | Cc1nc(-c2cccnc2)sc1C1=NCC(c2ccccn2)O1 (stereo not drawn) [compound 16] | ≥ 80 | 1.72 | –
26 | Cc1nc(-c2cccnc2)sc1-c1ccn(C(=O)NCC(C)C)n1 [compound 120] | ≥ 80 | 2.89 | –
27 | Cc1nc(-c2cccnc2)sc1-c1ccnc(C(F)(F)Cl)n1 [compound 45] | ≥ 80 | 2.95 | –
28 | CCNC(=O)n1ccc(-c2sc(-c3cccnc3)nc2C)n1 [compound 121] | ≥ 80 | 2.05 | –

Row | SMILES | pest or weed control at 500 g/ha [1, 3] [%] | chromatographic logP [2, 4] | further results
29 | Cc1ccc(-c2nccc(-c3sc(-c4cccnc4)nc3C)n2)nc1C [compound 55] | ≥ 80 | 1.49 | –
30 | COC(=O)c1nc(-c2sc(-c3cccnc3)nc2C)ccc1Cl [compound 112] | ≥ 80 | 2.64 | –
31 | CCc1nnc(-n2ccc(-c3sc(-c4cccnc4)nc3C)n2)s1 [compound 84] | ≥ 80 | 2.61 | –
32 | Cc1nc(-c2cccnc2)sc1-c1ccn(-c2cnc(C(F)(F)F)nc2)n1 [compound 78] | ≥ 80 | 2.99 | –
33 | Cc1nc(-c2cccnc2)sc1-c1ccn(CC(F)(F)F)n1 [compound 23] | ≥ 80 | 2.2 | –
34 | Cc1nc(-c2cccnc2)sc1-c1ccn(-c2nnc(C(C)(C)C)s2)n1 [compound 83] | ≥ 80 | 3.63 | –
35 | Cc1nc(-c2cccnc2)sc1-c1cccc(C(F)(F)F)n1 [compound 21] | ≥ 80 | 3.01 | –
36 | Cc1nc(-c2cccnc2)sc1-c1ccn(C(=O)NC(C)(C)C(C)C)n1 [compound 130] | ≥ 80 | 4.17 | –
37 | Cc1nc(-c2cccnc2)sc1-c1nccc(C(F)(F)F)n1 [compound 94] | ≥ 80 | 3.14 | –
38 | FC(F)(F)Oc1cccc(-c2nnc(-c3cccnc3)s2)c1 [compound 159] | ≥ 80 | 3.16 | –
39 | Cc1nc(-c2cccnc2)sc1-c1ccnc(Cn2cncn2)n1 [compound 69] | ≥ 80 | 1.2 | –
40 | Cc1nc(-c2cccnc2)sc1-c1nc(C(F)(F)F)co1 [compound 75] | ≥ 80 | 2.97 | –
41 | Cc1nc(-c2cccnc2)sc1-c1ccn(-c2nnc(C3CCCC3)s2)n1 [compound 107] | ≥ 80 | 3.85 | –
42 | Cc1nc(-c2cccnc2)sc1-c1ccn(-c2cnccn2)n1 [Preparation Example 2, 2-[3-(4-Methyl-2-pyridin-3-ylthiazol-5-yl)pyrazol-1-yl]pyrazine] | ≥ 80 | 2.3 | chromatographic logP [2, 5]: 2.3
43 | c1cnc(-c2cccc(-c3nnc(-c4cccnc4)s3)n2)nc1 [Preparation Example 10, 2-[6-(5-Pyridin-3-yl-[1,3,4]thiadiazol-2-yl)pyridin-2-yl]pyrimidine] | ≥ 80 | 1.54 | chromatographic logP [2, 5]: 1.54
44 | Cn1nc(-c2cccnc2)cc1-c1ccn(-c2ccccn2)n1 [compound 169] | ≥ 80 | 1.64 | –
45 | c1cnc(N2CCOC(c3cnc(-c4cccnc4)s3)=N2)nc1 [compound 67] | ≥ 80 | 1.9 | –
46 | CCOCC(C)NC(=O)n1ccc(-c2sc(-c3cccnc3)nc2C)n1 (stereo not drawn) [compound 118] | ≥ 80 | 2.69 | –
47 | c1cnc(-c2cccc(-c3cnc(-c4cncnc4)s3)n2)nc1 [compound 151] | ≥ 80 | 1.54 | –
48 | Fc1cncc(-c2nnc(-c3cccc(-c4ncccn4)n3)s2)c1 [compound 165] | ≥ 80 | 1.91 | –
49 | Cc1nc(-c2cccnc2)sc1-c1ccnc(C(F)(F)C(F)(F)C(F)(F)F)n1 [compound 60] | – | – | pest or weed control at 500 g/ha ([1]; in Brassica rapa): ≥ 80%; chromatographic logP ([2]; HPLC on reversed-phase column (C18), acidic range (pH 3.4), 55° C.): 3.84
50 | Cc1nc(-c2cccnc2)sc1-c1ccnc(-c2ncccn2)n1 [Preparation Example 1, 4-(4-Methyl-2-pyridin-3-ylthiazol-5-yl)-[2,2′]bipyrimidinyl] | – | 1.17 | pest or weed control at 500 g/ha ([1]; in Brassica rapa): ≥ 80%; chromatographic logP [2, 5]: 1.17
51 | Cc1nc(-c2cncc(F)c2)sc1-c1cccc(-c2ncccn2)n1 [compound 152] | ≥ 80 | 2.43 | –
52 | C#CC(C)(C)NC(=O)n1ccc(-c2sc(-c3cccnc3)nc2C)n1 [compound 134] | ≥ 80 | 2.69 | –
53 | CCOc1ccc(-c2cc(-c3cccnc3)nn2C)cn1 [compound 245] | – | 1.46 | –
54 | Cc1nc(-c2cccnc2)sc1-c1nc(C(=O)N2CCOCC2)cs1 [compound 247] | – | 1.66 | –
55 | CC(=O)c1sc(-c2cccnc2)nc1C [1-(4-Methyl-2-pyridin-3-ylthiazol-5-yl)ethanone] | – | – | logP (HCOOH) ([2]; values given in the preparation examples, formic acid method): 1.5
